Experiments:
ADHD = details: in vivo; cited from earlier work
[1] = system: ADHD patients with insomnia disorders; experiment: sleep induction by melatonin in ADHD patients with insomnia disorders first treated with methyl phenidate; type: in vivo, human; details: pure melatonin 2.5 mg
[2] = system: patients with major depressive disorder; details: cited from earlier work
[3] = system: children with delayed sleep phase syndrome; details: 2.5 to 7.5 mg PO once daily before expected bedtime; cited from earlier work
[4] = system: patients who had been previously treated with methyl phenidate; details: melatonin 3 mg; cited from earlier work
dopamine levels = details: normal therapeutic doses; healthy, adult men; cited from earlier work
ADHD patients = details: versus 54% of ADHD cases with concomitant insomnia; cited from earlier work

Clc1cccc(Cl)c1N=C1NCCN1 [clonidine]
efficacy in treating ADHD (ADHD): effective in treating ADHD

COc1ccc2[nH]cc(CCNC(C)=O)c2c1 [melatonin, N-acetyl-5-methoxytryptamine]
activity as a sleep-inducing agent [1]: active as a sleep-inducing agent | sleep quality scores ([2]; concomitant slow-release melatonin at 9 pm versus fluoxetine alone, 4 weeks): significantly improved sleep quality scores | need for additional sleep medications ([2]; concomitant slow-release melatonin with fluoxetine): avoided the need for additional sleep medications | average onset of sleep after melatonin administration [3]: ≤ 1 h | time for insomnia [4]: significant reduction in the time for insomnia

COC(=O)C(c1ccccc1)C1CCCCN1 (centres unmarked) [methylphenidate]
dopamine levels (PET) (dopamine levels): increased their dopamine levels | problems relating to insomnia in treated ADHD patients (ADHD patients): 64%

— patent US20060167050A1 (POOGER PROPERTIES LIMITED, priority 2002, published 2006)
